For assay [1], the system named is HT21 (DNA, G4) GGGTTAGGGTTAGGGTTAGGG
The experiment in a line: UV melting. The settings on record: NH4+ 30 mM, compound concentration not given in material.

The test system is the same in assay [2]. In words: ITC. The settings on record: for K a1: two-event model, high-affinity site.
Assay [3] has the same test system. The experiment in a line: UV melting, 295 nm. The settings on record: no monovalent cation added; compound concentration not given in material.
Assay [4] concerns L-HT21 (L-DNA, G4, all nucleotides L-DNA (enantiomer of HT21)) GGGTTAGGGTTAGGGTTAGGG
In words: CD. The settings on record: NH4+ 30 mM; mirror image CD of the HT21 complex.

The mark [5] stands for this setting: value given for CuL1-CuL4 together.
The mark [6] stands for this setting: NH4+ 30 mM, 20 mM MOPS pH 6.5, 298 K.

Regarding `CN(C)CCOc1ccc(-c2cc(-c3ccccn3)nc(-c3ccccn3)c2)cc1.O=[N+]([O-])[O-].O=[N+]([O-])[O-].[Cu+2]`, in assay [1] (setting [5]), the ΔTm is ~ 20 °C. Moreover, in assay [2] (setting [6]), the “K a1” value was “(1.7 ± 0.3) × 10^7 M^–1”.
Regarding `Cc1ccc(-c2cc(-c3ccccn3)nc(-c3ccccn3)c2)cc1.O=[N+]([O-])[O-].O=[N+]([O-])[O-].[Cu+2]`, in assay [1], the ΔTm was ~ 10 °C. The Ka entry in assay [2] (NH4+ 30 mM, 20 mM MOPS pH 6.5, 298 K, one-event binding model) is given as “(2.0 ± 0.5) × 10^5 M^–1”.
`O=[N+]([O-])[O-].O=[N+]([O-])[O-].[Cu+2].c1ccc(-c2cc(-c3ccc(OCCN4CCCC4)cc3)cc(-c3ccccn3)n2)nc1`: the ΔTm is ~ 13 °C in assay [3] and ~ 20 °C in assay [1] (setting [5]). Moreover, the “K a1” value in assay [2] (setting [6]) was “(1.7 ± 0.2) × 10^7 M^–1”. Moreover, the Ka result in assay [2] (no monovalent cation added, 298 K, three-event model, first (strongest) event) is listed as “(1.5±0.6)E8 M^-1”. Further, the binding entry in assay [4] is on record as “yes”.
Turning to `O=[N+]([O-])[O-].O=[N+]([O-])[O-].[Cu+2].c1ccc(-c2cc(-c3ccc(OCCN4CCCCC4)cc3)cc(-c3ccccn3)n2)nc1`, the ΔTm in assay [1] (setting [5]) was ~ 20 °C. Besides, in assay [2] (setting [6]), the “K a1” value is recorded as “(1.7 ± 0.3) × 10^7 M^–1”.
`O=[N+]([O-])[O-].O=[N+]([O-])[O-].[Cu+2].c1ccc(-c2cc(-c3ccc(OCCN4CCOCC4)cc3)cc(-c3ccccn3)n2)nc1`: the ΔTm in assay [1] (setting [5]) was ~ 20 °C. Moreover, the “K a1” value in assay [2] (setting [6]) was “(1.7 ± 0.3) × 10^7 M^–1”.
Consider `O=[N+]([O-])[O-].O=[N+]([O-])[O-].[Cu+2].c1ccc(-c2cccc(-c3ccccn3)n2)nc1`, for which the ΔTm in assay [1] is ~ 5 °C. For the same compound, in assay [2] (NH4+ 30 mM, 20 mM MOPS pH 6.5, 298 K, affinity too low to be determined), the binding entry was “weak”.

(Values after paper PMC5949855 (2015).)
